{
  "source": "patent US6407058B1",
  "about": "“Modifying the permeability of physiological barriers” (Eisai Co., Limited, priority 1996, dated 2002)",
  "key": {"p100/p120 [1]": {"tested_on": "p100/p120", "test": "p100/p120 electrophoretic mobility, LLC-PK1 cells", "format": "cell-based, porcine", "details": "200 nM PDB, 30 minutes", "description": "(§1) p100 and p120 electrophoretic mobility is affected by PDB in a number of different epithelial cell lines. LLC-PK1, (a porcine kidney cell line), MDCK strain II cells and gut-derived Caco-2 cells were treated with or without 200 nM PDB for 30 minutes, lysed into Laemmli sample buffer, separated by electrophoresis and analysed by immunoblotting.\n(§2) MDCK strain I and II cells were provided by Barry Gumbiner (memorial Sloan-Kettering Cancer Center, NY). LLC-PK1 and Caco-2 cells were obtained from the European Collection of Animal Cell Cultures. All cells were maintained at 37° C. under 5% CO2 in humidified air. MDCK strain I and II cells were maintained in MEM containing 10% FCS, 100 U/ml penicillin, 100 μg/ml streptomycin and 2 mM L-glutamine. Caco-2 cells were maintained in MEM containing 15% FCS, 1% non-essential amino acids and 1 μg/ml bovine insulin (Sigma I-6634). LLC-PK1 cells were grown in M199 (Gibco), 10% FCS, 100 U/ml penicillin, 100 μg/ml streptomycin and 2 mM L-glutamine. For whole cell lysate analysis, 10^5 cells were plated on 6.5 mm diameter, 0.4 μm, polycarbonate Transwell filters from Costar, in 0.25 ml of medium. The basolateral chamber contained 0.75 ml of medium. For immunoprecipitation, 5×10^5 cells were plated onto 24 mm Transwell filters, in 2 ml of medium, with 3 ml of medium in the lower chamber. Cells were used 4-7 days after plating. […]"}, "p100/p120 [2]": {"tested_on": "p100/p120", "test": "p100/p120 electrophoretic mobility, Caco-2 cells", "format": "cell-based", "details": "200 nM PDB, 30 minutes", "description": "as §1, §2"}, "p100/p120 [3]": {"tested_on": "p100/p120", "test": "p100/p120 electrophoretic mobility, primary pig brain endothelial cells (PBECs)", "format": "cell-based", "details": "PBECs, 200 nM PDB, 30 minutes", "description": "Cells were treated with or without 200 nM PDB for 30 minutes, lysed into Laemmli sample buffer, separated by electrophoresis and analysed by immunoblotting with antibodies recognising p100 and p120.\n(§3) MDCK strain I and II cells were provided by Barry Gumbiner (memorial Sloan-Kettering Cancer Center, NY). LLC-PK1 and Caco-2 cells were obtained from the European Collection of Animal Cell Cultures. All cells were maintained at 37° C. under 5% CO2 in humidified air. MDCK strain I and II cells were maintained in MEM containing 10% FCS, 100 U/ml penicillin, 100 μg/ml streptomycin and 2 mM L-glutamine. Caco-2 cells were maintained in MEM containing 15% FCS, 1% non-essential amino acids and 1 μg/ml bovine insulin (Sigma I-6634). LLC-PK1 cells were grown in M199 (Gibco), 10% FCS, 100 U/ml penicillin, 100 μg/ml streptomycin and 2 mM L-glutamine. For whole cell lysate analysis, 10^5 cells were plated on 6.5 mm diameter, 0.4 μm, polycarbonate Transwell filters from Costar, in 0.25 ml of medium. The basolateral chamber contained 0.75 ml of medium. For immunoprecipitation, 5×10^5 cells were plated onto 24 mm Transwell filters, in 2 ml of medium, with 3 ml of medium in the lower chamber. Cells were used 4-7 days after plating. Tissue culture materials were from Gibco. Porcine brain endothelial cells were isolated and grown by modifications of a previously published procedure (Rubin et al., 1991). Brain capillary fragments were plated on dishes coated with rat tail collagen and human fibronectin. The cultures were fed every other day with growth medium composed of 50% astrocyte-conditioned medium and 50% Dulbecco's Modified Eagle Medium containing 10% plasma-derived serum, 125 μg/ml heparin, antibiotics and glutamine. They were incubated in a humidified atmosphere of 10% CO2 at 37° C. When the endothelial cells were approximately 50% confluent (after 4-6 days in culture), they were trypsinized and plated onto collagen-coated polycarbonate Transwell filters (6.5 mm diameter, 0.4 μm pore size, tissue culture treated, Costar Corp, Cambridge, Mass., U.S.A.) in the same medium (250 μl apically, 750 μl basolaterally). After 2-3 days on filters, the medium was switched to a 1:1 mixture of astrocyte-conditioned medium and a Dulbecco's Modified Eagle Medium-based, chemically defined medium (‘N2’, Rubin et al., 1991; Bottenstein and Sato, 1979). The final concentration of plasma-derived serum was 5%. Human umbilical vein endothelial cells were from Clonetics.\n(§4) Whole cell lysates were prepared by rapidly replacing the culture medium in 6.5 mm with hot Laemmli sample buffer, followed by heating at 100° C. for 5 minutes. Immunoprecipitations were carried out at 4° C. Confluent monolayers of cells were washed rapidly with ice cold PBS (containing 0.9 mM CaCl2 and 0.5 mM MgCl2) before addition of 0.5 ml of the appropriate buffer. The filters were then gently scraped, and the lysate was removed and centrifuged at 14000× g. The supernatant was precleared with 10% (w/v) protein A-Sepharose in lysis buffer for 30-60 minutes. Appropriate primary antibodies were added to the lysate, and after 2-3 hours the immunecomplex was isolated, using rabbit anti-mouse secondary antibodies (Jackson Immunoresearch Labs Inc., West Grove, Pa.) and protein A-Sepharose."}, "p100/p120 [4]": {"tested_on": "p100/p120", "test": "p100/p120 electrophoretic mobility (band shift) by immunoblotting, MDCK I cells", "format": "cell-based", "details": "30 minutes", "description": "The migration of the cellular proteins p100 and p120 during electrophoresis is increased following PDB-treatment of MDCK I cells. PDB (phorbol-12,13-dibutyrate) is a pharmacological activator of protein kinase C. MDCK I cells are a kidney derived epithelial cell line, with particularly well developed junctional complexes. Cells treated for 30 minutes with either 200 nM PDB (+) or vehicle (−) were then lysed into Laemmli sample buffer, and separated by electrophoresis using 6% acrylamide gels. Proteins were transferred to nitrocellulose and probed with antibodies to p100/p120, and then reprobed with E-cadherin and paxillin antibodies.\nas §3\nas §4, with “A-Sepharose. The beads were washed fives times with lysis buffer, and the bound protein was solubilized in SDS-sample buffer, followed by heating at 100° C. for 5 minutes.” for “A-Sepharose.”\nCell extracts or immunoprecipitates in SDS sample buffer were resolved by SDS-PAGE. […]"}},
  "data": [
    {"smiles": "CCCC(=O)O[C@@H]1[C@@H](C)[C@@]2(O)[C@@H](C=C(CO)C[C@]3(O)C(=O)C(C)=C[C@@H]23)[C@@H]2C(C)(C)[C@]12OC(=O)CCC", "note": "[PDB, Phorbol-12,13-dibutyrate]", "values": [
      {"measurement": "migration of p100 and p120", "setting": "p100/p120 [1]", "result": "increased markedly"},
      {"measurement": "migration of p100 and p120", "setting": "p100/p120 [2]", "result": "less striking, but still present"},
      {"measurement": "mobility of p100 and p120", "setting": "p100/p120 [3]", "result": "the mobility of p100 and p120 increased"},
      {"measurement": "migration of p100 and p120 during electrophoresis", "setting": "p100/p120 [4]; MDCK I cells, 200 nM PDB", "result": "migrate as faster, tighter bands"},
      {"measurement": "concentration of maximal effect on p100/p120 mobility", "setting": "p100/p120 [4]; MDCK I, PDB 1 to 200 nM", "result": 100, "unit": "nM"}
    ]}
  ]
}
